In patent US6737383B1, “Herbicidal oxadiazolidines” (priority 1999, dated 2004):

Legend:
[1] = tested on: wheat; assay: Test B pre/postemergence wheat; assay type: in vivo, Triticum aestivum
Summary of the method: (§1)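 Herbicidal effect was estimated by eye on a ten-point control scale after plants spent twelve to sixteen days in a greenhouse following soil or foliar treatment. Foliar sprays targeted plants at one to four leaves; all doses were formulated in a non-phytotoxic solvent with surfactant.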

[2] = tested on: corn; assay: Test B pre/postemergence corn; assay type: in vivo, Zea mays
Summary of the method: as §1

[3] = tested on: bedstraw; assay: Test B pre/postemergence bedstraw; assay type: in vivo, Galium aparine; details: Preemergence
Summary of the method: as §1

[4] = tested on: crabgrass; assay: Test B pre/postemergence crabgrass; assay type: in vivo, Digitaria sanguinalis
Summary of the method: as §1

[5] = tested on: bamyardgrass; assay: Test B flood test barnyardgrass; assay type: in vivo, Echinochloa crus-galli
Summary of the method: (§2)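 Flood test on plants grown to the 2-leaf stage; treated plants kept in greenhouse twelve to sixteen days, then visually rated against controls on a 0 (no effect) to 10 (complete control) scale.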

[6] = tested on: morningglory; assay: Test B pre/postemergence morningglory; assay type: in vivo, Ipomoea hederacea
Summary of the method: as §1

[7] = tested on: soybean; assay: Test B pre/postemergence soybean; assay type: in vivo, Glycine max
Summary of the method: as §1

[8] = tested on: blackgrass; assay: Test B pre/postemergence blackgrass; assay type: in vivo, Alopecurus myosuroides
Summary of the method: as §1

[9] = tested on: rice; assay: Test B flood test rice; assay type: in vivo, Oryza sativa
Summary of the method: as §2

[10] = tested on: smallflower flatsedge; assay: Test B flood test smallflower flatsedge; assay type: in vivo, Cyperus difformis
Summary of the method: as §2

[11] = tested on: purple nutsedge; assay: Test B pre/postemergence purple nutsedge; assay type: in vivo, Cyperus rotundus
Summary of the method: as §1

[12] = tested on: pigweed; assay: Test B pre/postemergence pigweed; assay type: in vivo, Amaranthus retroflexus
Summary of the method: as §1

[13] = tested on: giant foxtail; assay: Test B pre/postemergence giant foxtail; assay type: in vivo, Setaria faberii
Summary of the method: as §1

[14] = tested on: velvetleaf; assay: Test B pre/postemergence velvetleaf; assay type: in vivo, Abutilon theophrasti
Summary of the method: as §1

[15] = tested on: cocklebur; assay: Test B pre/postemergence cocklebur; assay type: in vivo, Xanthium strumarium
Summary of the method: as §1

[16] = tested on: duck salad; assay: Test B flood test duck salad; assay type: in vivo, Heteranthera limosa
Summary of the method: as §2

[17] = tested on: surinam grass; assay: Test B pre/postemergence surinam grass; assay type: in vivo, Brachiaria decumbens
Summary of the method: as §1

[18] = tested on: sugar beet; assay: Test B pre/postemergence sugar beet; assay type: in vivo, Beta vulgaris
Summary of the method: as §1

[19] = tested on: rape; assay: Test B pre/postemergence rape; assay type: in vivo, Brassica napus
Summary of the method: as §1

[20] = tested on: wild oat; assay: Test B pre/postemergence wild oat; assay type: in vivo, Avena fatua
Summary of the method: as §1

[21] = Postemergence, Rate 125 g/ha, scale of 0 to 10 where 0 is no effect and 10 is complete control
[22] = Postemergence, Rate 250 g/ha, scale of 0 to 10, 0 is no effect, 10 is complete control
[23] = Postemergence, Rate 500 g/ha, scale of 0 to 10 where 0 is no effect and 10 is complete control
[24] = Preemergence, Rate 62 g/ha, scale 0 to 10 (0 no effect, 10 complete control)
[25] = Preemergence, Rate 125 g/ha, scale of 0 to 10 where 0 is no effect and 10 is complete control
[26] = Preemergence, Rate 500 g/ha, scale of 0 to 10 where 0 is no effect and 10 is complete control
[27] = Postemergence, Rate 62 g/ha, scale of 0 to 10, 0 is no effect, 10 is complete control
[28] = Rate 62 g/ha, flood test species, Pre-emergence, visual evaluation after twelve to sixteen days
[29] = Rate 125 g/ha, under heading Pre-emergence, flood test species, visual evaluation after twelve to sixteen days
[30] = Rate 250 g/ha, Pre-emergence (flood test species), scale 0 to 10, 0 is no effect, 10 is complete control
[31] = Rate 500 g/ha, Pre-emergence section of Table B, 0 to 10 scale (0 no effect, 10 complete control)

## COC(C)n1c(=O)on(C(=O)N(c2ccc(F)cc2F)C(C)C)c1=O (stereo not drawn) [Compound 593]
[1]; [21]
  Plant response rating, Wheat: 0
[1]; [22]
  Wheat plant response rating: 0
[1]; [23]
  Plant response rating, Wheat: 0
[1]; [24]
  Wheat plant response rating: 0
[1]; [25]
  Wheat plant response rating: 0
[1]; [26]
  Plant response rating, Wheat: 0
[2]; [27]
  Corn plant response rating: 0
[2]; [21]
  Plant response rating, Corn: 0
[2]; [22]
  Corn plant response rating: 0
[2]; [23]
  Plant response rating, Corn: 0
[2]; [24]
  Corn plant response rating: 0
[2]; [25]
  Corn plant response rating: 0
[2]; Preemergence, Rate 250 g/ha
  Corn plant response rating (0 to 10 scale): 0
[2]; [26]
  Plant response rating, Corn: 0
[3]; Rate 62 g/ha, scale 0 to 10 (0 no effect, 10 complete control)
  Bedstraw plant response rating: 0
[3]; Rate 250 g/ha
  Bedstraw plant response rating (0 to 10 scale): 0
[4]; [27]
  Crabgrass plant response rating: 0
[4]; [21]
  Plant response rating, Crabgrass: 0
[4]; [22]
  Crabgrass plant response rating: 0
[4]; [24]
  Crabgrass plant response rating: 0
[4]; [25]
  Crabgrass plant response rating: 0
[4]; [26]
  Plant response rating, Crabgrass: 0
[5]; [28]
  Plant response rating, Barnyardgrass (0 to 10 scale, 0 is no effect, 10 is complete control): 0
[5]; [29]
  Barnyardgrass plant response rating (0 to 10 scale, 0 is no effect, 10 is complete control): 0
[5]; [30]
  Barnyardgrass plant response rating: 0
[5]; [31]
  Barnyardgrass plant response rating: 0
[6]; [27]
  Morningglory plant response rating: 0
[6]; [21]
  Plant response rating, Morningglory: 0
[6]; [22]
  Morningglory plant response rating: 0
[6]; [23]
  Plant response rating, Morningglory: 2
[6]; [24]
  Morningglory plant response rating: 0
[6]; [25]
  Morningglory plant response rating: 0
[6]; [26]
  Plant response rating, Morningglory: 0
[7]; [21]
  Plant response rating, Soybean: 0
[7]; [22]
  Soybean plant response rating: 0
[7]; [23]
  Plant response rating, Soybean: 1
[7]; [24]
  Soybean plant response rating: 0
[7]; [25]
  Soybean plant response rating: 0
[7]; [26]
  Plant response rating, Soybean: 0
[8]; [27]
  Blackgrass plant response rating: 0
[8]; [21]
  Plant response rating, Blackgrass: 0
[8]; [22]
  Blackgrass plant response rating: 0
[8]; [23]
  Plant response rating, Blackgrass: 0
[8]; [24]
  Blackgrass plant response rating: 0
[8]; [25]
  Blackgrass plant response rating: 0
[8]; Preemergence, Rate 250 g/ha
  Blackgrass plant response rating (0 to 10 scale): 0
[8]; [26]
  Blackgrass plant response rating: 0
[9]; [28]
  Plant response rating, Rice (0 to 10 scale, 0 is no effect, 10 is complete control): 0
[9]; [29]
  Rice plant response rating (0 to 10 scale, 0 is no effect, 10 is complete control): 0
[9]; [30]
  Rice plant response rating: 0
[9]; [31]
  Rice plant response rating: 0
[10]; [28]
  Plant response rating, S. Flatsedge (0 to 10 scale, 0 is no effect, 10 is complete control): 0
[10]; [29]
  S. Flatsedge plant response rating (0 to 10 scale, 0 is no effect, 10 is complete control): 0
[10]; [30]
  S. Flatsedge plant response rating: 0
[10]; [31]
  S. Flatsedge plant response rating: 0
[11]; [27]
  Nutsedge plant response rating: 0
[11]; [21]
  Plant response rating, Nutsedge: 0
[11]; [22]
  Nutsedge plant response rating: 0
[11]; [23]
  Plant response rating, Nutsedge: 0
[11]; [24]
  Nutsedge plant response rating: 0
[11]; [25]
  Nutsedge plant response rating: 0
[11]; [26]
  Plant response rating, Nutsedge: 2
[12]; [21]
  Plant response rating, Redroot pigweed: 0
[12]; [22]
  Redroot pigweed plant response rating: 0
[12]; [23]
  Plant response rating, Redroot pigweed: 0
[12]; [24]
  Redroot pigweed plant response rating: 0
[12]; [25]
  Redroot pigweed plant response rating: 0
[12]; [26]
  Plant response rating, Redroot pigweed: 0
[13]; [27]
  Giant foxtail plant response rating: 0
[13]; [21]
  Plant response rating, Giant foxtail: 0
[13]; [22]
  Giant foxtail plant response rating: 0
[13]; [23]
  Plant response rating, Giant foxtail: 0
[13]; [24]
  Giant foxtail plant response rating: 0
[13]; [25]
  Giant foxtail plant response rating: 0
[13]; [26]
  Plant response rating, Giant foxtail: 0
[14]; [21]
  Plant response rating, Velvetleaf: 0
[14]; [22]
  Velvetleaf plant response rating: 0
[14]; [23]
  Plant response rating, Velvetleaf: 0
[14]; [24]
  Velvetleaf plant response rating: 0
[14]; [25]
  Velvetleaf plant response rating: 0
[14]; [26]
  Plant response rating, Velvetleaf: 0
[15]; [27]
  Cocklebur plant response rating: 0
[15]; [21]
  Plant response rating, Cocklebur: 0
[15]; [22]
  Cocklebur plant response rating: 0
[15]; [23]
  Plant response rating, Cocklebur: 0
[15]; [24]
  Cocklebur plant response rating: 0
[15]; [25]
  Cocklebur plant response rating: 0
[15]; Preemergence, Rate 250 g/ha
  Cocklebur plant response rating (0 to 10 scale): 0
[15]; [26]
  Plant response rating, Cocklebur: 0
[16]; [28]
  Plant response rating, Ducksalad (0 to 10 scale, 0 is no effect, 10 is complete control): 0
[16]; [29]
  Ducksalad plant response rating (0 to 10 scale, 0 is no effect, 10 is complete control): 0
[16]; [30]
  Ducksalad plant response rating: 0
[16]; [31]
  Ducksalad plant response rating: 0
[17]; [27]
  B. signalgrass plant response rating: 0
[17]; [21]
  Plant response rating, B. signalgrass: 0
[17]; [22]
  B. signalgrass plant response rating: 0
[17]; [23]
  Plant response rating, B. signalgrass: 0
[17]; [24]
  B. signalgrass plant response rating: 0
[17]; [25]
  B. signalgrass plant response rating: 0
[17]; Preemergence, Rate 250 g/ha
  B. signalgrass plant response rating (0 to 10 scale, 0 is no effect, 10 is complete control): 0
[17]; [26]
  B. signalgrass plant response rating: 0
[18]; [21]
  Plant response rating, Sugarbeets: 0
[18]; [22]
  Sugarbeets plant response rating: 0
[18]; [23]
  Plant response rating, Sugarbeets: 0
[18]; [24]
  Sugarbeets plant response rating: 0
[18]; [25]
  Sugarbeets plant response rating: 0
[18]; [26]
  Plant response rating, Sugarbeets: 0
[19]; [27]
  Rape plant response rating: 0
[19]; [21]
  Plant response rating, Rape: 0
[19]; [22]
  Rape plant response rating: 0
[19]; [23]
  Plant response rating, Rape: 0
[19]; [24]
  Rape plant response rating: 0
[19]; [25]
  Rape plant response rating: 0
[19]; [26]
  Plant response rating, Rape: 0
[20]; [21]
  Plant response rating, Wild oats: 0
[20]; [22]
  Wild oats plant response rating: 0
[20]; [23]
  Plant response rating, Wild oats: 0
[20]; [24]
  Wild oats plant response rating: 0
[20]; [25]
  Wild oats plant response rating: 0
[20]; [26]
  Plant response rating, Wild oats: 0
